In brackets after ≈: the same amount, converted by molar mass. Where a SMILES comes first, the peptide text is derived from it.
Tested on: P388
Assay: Inhibitory activity against P388 lymphocytic leukemia cells
Format: functional
Details: Mus musculus, read-out: ED50 (the source's name)

CC[C@H](C)[C@@H]1NC(=O)[C@@H]2CCCN2C(=O)[C@@H]2CCCN2C(=O)[C@H]([C@@H](C)CC)NC(=O)[C@H](Cc2ccc(O)cc2)NC(=O)[C@@H]2CCCN2C(=O)[C@@H]2CCCN2C(=O)[C@H](CC(C)C)NC(=O)[C@H]([C@@H](C)O)NC(=O)[C@H](Cc2ccccc2)NC1=O [PHAKELLISTATIN 12] (cyclo(FTLPPYIPPI))
EC50: 2.8 µg/mL (≈ 2.46 µM)

Source: ChEMBL document CHEMBL1136589, “Antineoplastic agents 390. Isolation and structure of phakellistatin 12 from a Chuuk archipelago marine sponge” (2003)
